Experimental findings from BindingDB's records for doi:10.7270/Q2SN07C4 (Vanderbilt Screening Center for GPCRs, Ion Channels and …, 2009) are described below.

The target of the assay is T1, Muscarinic acetylcholine receptor M4 (Rattus norvegicus, UniProt P08485).
T1 sequence (P08485 whole entry): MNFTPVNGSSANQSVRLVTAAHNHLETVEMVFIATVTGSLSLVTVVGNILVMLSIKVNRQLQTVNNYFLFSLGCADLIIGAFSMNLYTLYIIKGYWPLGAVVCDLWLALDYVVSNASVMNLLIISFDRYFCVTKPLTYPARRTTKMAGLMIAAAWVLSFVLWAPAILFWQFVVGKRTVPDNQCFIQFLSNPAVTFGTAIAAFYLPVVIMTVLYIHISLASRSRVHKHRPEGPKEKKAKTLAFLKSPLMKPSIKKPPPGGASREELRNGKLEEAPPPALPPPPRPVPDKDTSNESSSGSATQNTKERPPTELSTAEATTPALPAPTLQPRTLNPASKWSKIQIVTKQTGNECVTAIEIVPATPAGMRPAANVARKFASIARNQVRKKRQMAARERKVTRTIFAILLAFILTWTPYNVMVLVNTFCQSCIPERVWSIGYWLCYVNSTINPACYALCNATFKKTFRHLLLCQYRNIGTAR
Briefly: rat M4 radioligand competition binding – biochemical, NMS competition, mechanism study for M4 PAM project, late-stage follow-up (AID 1939).

Usually EC50 stands for the concentration giving half of the maximal effect. The low end stands for higher potency in that assay, the high end for lower potency in that assay. In turn, `Cc1cc(C)c2c(N)c(C(=O)NCc3ccc4c(c3)OCO4)sc2n1` [3-amino-4,6-dimethyl-N-piperonyl-thieno[2,3-b]pyridine-2-carboxamide] yielded an EC50 of less than 1.42 µM.
